Results reported in patent US20190233884A1 (University of Southern California, priority 2016, published 2019).

Tested on: patients with refractory metastatic colorectal cancer (mCRC)
Assay: PFS, OS and disease control in the testing (validation) cohort of refractory mCRC patients receiving TAS-102 (n=129, Italy), by baseline characteristics, SNP genotype and toxicity
Format: in vivo, human
Method: All patients underwent the treatment in salvage-line setting. […]
Genomic DNA was extracted from peripheral whole blood in patients of all cohorts using the QIAmp Kit (Qiagen, Valencia, Calif., USA) according to the manufacturer's protocol (www.qiagen.com). The candidate SNPs were genotyped using PCR-based direct DNA sequence analysis by ABI 3100A Capillary Genetic Analyzer and Sequencing Scanner v1.0 (Applied Biosystems). Amplification of extracted DNA was carried out using both forward and reverse primers for each gene polymorphism as shown in Table 1. […] The investigators analyzing SNPs were blinded to the clinical data of the study patients.
The primary endpoint in this study was progression-free survival (PFS), and the secondary endpoints were overall survival (OS) and disease control rate (DCR). PFS was calculated from the date of starting treatment to the first observation of disease progression or death from any cause. If a patient had no disease progression or death, PFS was censored at the date of last follow up. OS was calculated from the date of starting treatment until the date of death from any cause or the date of the last follow-up, at which point OS was censored. The disease control rate (DCR) was defined as the proportion of patients who achieved a stable disease (SD) or […] according to RECISTv1.1. Chi-square test was used to examine the difference in baseline patient characteristics among the three cohorts. Allelic distribution of all SNPs by ethnicity for deviation from Hardy-Weinberg equilibrium and the allelic frequencies of SNPs were tested using the Chi-square tests with one degree of freedom. The associations between candidate SNPs and disease control, and toxicities were examined using contingency tables and Fisher's exact test. The associations of SNPs with PFS and OS were analysed using Kaplan-Meier curves and the log-rank test. Because the true mode of inheritance of candidate SNPs was not established yet, a codominant or dominant genetic model if appropriate was considered.
All patients underwent the treatment in salvage-line setting. […] In all patients, adverse events were graded according to the Common Terminology Criteria for Adverse Events, version 4.0. […]
Genomic DNA was extracted from peripheral whole blood in patients of all cohorts using the QIAmp Kit (Qiagen, Valencia, Calif., USA) according to the manufacturer's protocol (www.qiagen.com). The candidate SNPs were tested using PCR-based direct DNA sequence analysis by ABI 3100A Capillary Genetic Analyzer and Sequencing Scanner v1.0 (Applied Biosystems). […] The investigators analyzing SNPs were blinded to the clinical data.
The primary endpoint in this study was progression-free survival (PFS), and the secondary endpoints were overall survival (OS) and disease control rate (DCR).

[1] = validation cohort, Performance status ECOG 1+ vs ECOG 0 (Ref.), univariate
[2] = validation cohort, Peritoneal No
[3] = validation cohort, Peritoneal No vs Yes (Ref.), univariate
[4] = validation cohort, Peritoneal Yes
[5] = validation cohort, Pre-chemo numbers <4
[6] = validation cohort, Pre-chemo numbers ≥4
[7] = validation cohort, Pre-chemo numbers ≥4 vs <4 (Ref.), univariate
[8] = validation cohort, Previous anti-EGFR No
[9] = validation cohort, Previous anti-EGFR No vs Yes (Ref.), univariate
[10] = validation cohort, Previous anti-EGFR Yes
[11] = validation cohort, Previous anti-VEGF No
[12] = validation cohort, Previous anti-VEGF No vs Yes (Ref.), univariate
[13] = validation cohort, Previous anti-VEGF Yes
[14] = validation cohort, Primary tumor resection No
[15] = validation cohort, Primary tumor resection No vs Yes (Ref.), univariate
[16] = validation cohort, Primary tumor resection Yes
[17] = validation cohort, Prior REGORA No
[18] = validation cohort, Prior REGORA No vs Yes (Ref.), univariate
[19] = validation cohort, Prior REGORA Yes
[20] = validation cohort, RAS status Mutant
[21] = validation cohort, RAS status Mutant vs Wild type (Ref.), univariate
[22] = validation cohort, RAS status Wild type
[23] = validation cohort, Sex Female vs Male (Ref.), univariate
[24] = validation cohort, Time to metastasis Metachronous
[25] = validation cohort, Time to metastasis Metachronous vs Synchronous (Ref.), univariate
[26] = validation cohort, Time to metastasis Synchronous
[27] = validation cohort, Tumor site Left
[28] = validation cohort, Tumor site Left vs Right (Ref.), univariate
[29] = validation cohort, Tumor site Right
[30] = validation cohort, XRCC3 rs861539 A/A
[31] = validation cohort, XRCC3 rs861539 A/A vs Any G (Ref.), multivariable
[32] = validation cohort, XRCC3 rs861539 A/A vs Any G (Ref.), univariate
[33] = validation cohort, XRCC3 rs861539 A/A vs G/G (Ref.), multivariable
[34] = validation cohort, XRCC3 rs861539 A/A vs G/G (Ref.), univariate
[35] = validation cohort, XRCC3 rs861539 Any A
[36] = validation cohort, XRCC3 rs861539 Any A vs G/G (Ref.), multivariable
[37] = validation cohort, XRCC3 rs861539 Any A vs G/G (Ref.), univariate
[38] = validation cohort, XRCC3 rs861539 Any G
[39] = validation cohort, XRCC3 rs861539 G/A
[40] = validation cohort, XRCC3 rs861539 G/A vs G/G (Ref.), multivariable
[41] = validation cohort, XRCC3 rs861539 G/A vs G/G (Ref.), univariate
[42] = validation cohort, XRCC3 rs861539 G/G
[43] = validation cohort, ATM rs609429 any G allele
[44] = validation cohort, ATM rs609429 any G vs C/C, univariate
[45] = whole testing (validation) cohort

Substance: Trifluridine/tipiracil [TAS-102]
- HR OS [1]: 2.15
- HR PFS [1]: 1.43
- Median OS [2]: 9.0 months
- Median PFS [2]: 2.0 months
- HR OS [3]: 0.80
- HR PFS [3]: 0.74
- Median OS [4]: 5.3 months
- Median PFS [4]: 1.9 months
- Median OS [5]: 5.1 months
- Median PFS [5]: 1.9 months
- Median OS [6]: 8.7+ months
- Median PFS [6]: 2.1 months
- HR OS [7]: 0.57
- HR PFS [7]: 0.66
- Median OS [8]: 4.4 months
- Median PFS [8]: 1.9 months
- HR OS [9]: 2.63
- HR PFS [9]: 1.53
- Median OS [10]: 8.8+ months
- Median PFS [10]: 2.1 months
- Median OS [11]: 6.6+ months
- Median PFS [11]: 2.8 months
- HR OS [12]: 0.60
- HR PFS [12]: 0.67
- Median OS [13]: 5.5 months
- Median PFS [13]: 2.0 months
- Median OS [14]: 3.9 months
- Median PFS [14]: 1.8 months
- HR OS [15]: 1.87
- HR PFS [15]: 2.13
- Median OS [16]: 9.0 months
- Median PFS [16]: 2.0 months
- Median OS [17]: 5.4 months
- Median PFS [17]: 2.0 months
- HR OS [18]: 1.36
- HR PFS [18]: 1.20
- Median OS [19]: 8.7+ months
- Median PFS [19]: 2.0 months
- Median OS [20]: 5.1 months
- Median PFS [20]: 1.9 months
- HR OS [21]: 1.48
- HR PFS [21]: 1.21
- Median OS [22]: 8.8+ months
- Median PFS [22]: 2.0 months
- Median OS (validation cohort, Sex Female): 5.3 months
- Median PFS (validation cohort, Sex Female): 2.1 months
- HR OS [23]: 1.22
- HR PFS [23]: 0.98
- Median OS (validation cohort, Sex Male): 9.0 months
- Median PFS (validation cohort, Sex Male): 1.9 months
- Median OS [24]: 8.5+ months
- Median PFS [24]: 2.0 months
- HR OS [25]: 0.59
- HR PFS [25]: 0.75
- Median OS [26]: 5.2 months
- Median PFS [26]: 1.9 months
- Median OS [27]: 9.0 months
- Median PFS [27]: 2.0 months
- HR OS [28]: 0.78
- HR PFS [28]: 1.07
- Median OS [29]: 5.1 months
- Median PFS [29]: 1.9 months
- Disease Control CR/PR/SD, patients n (%) [30]: 3 (12%)
- Median OS (95% CI) [30]: 4.2 (3.6, 8.8+) months
- Median PFS (95% CI) [30]: 1.9 (1.8, 2.0) months
- PD, patients n (%) [30]: 22 (88%)
- HR OS (95% CI) [31]: 1.05 (0.56, 1.97)
- HR PFS (95% CI) [31]: 1.30 (0.81, 2.09)
- HR OS (95% CI) [32]: 1.29 (0.70, 2.39)
- HR PFS (95% CI) [32]: 1.37 (0.86, 2.18)
- HR OS (95% CI) [33]: 0.93 (0.46, 1.88)
- HR PFS (95% CI) [33]: 1.26 (0.74, 2.14)
- HR OS (95% CI) [34]: 1.13 (0.57, 2.22)
- HR PFS (95% CI) [34]: 1.34 (0.80, 2.25)
- Disease Control CR/PR/SD, patients n (%) [35]: 19 (26%)
- Median OS (95% CI) [35]: 5.8 (4.1, 9.0+) months
- Median PFS (95% CI) [35]: 2.0 (1.9, 2.1) months
- PD, patients n (%) [35]: 55 (74%)
- HR OS (95% CI) [36]: 0.84 (0.47, 1.49)
- HR PFS (95% CI) [36]: 1.05 (0.69, 1.60)
- HR OS (95% CI) [37]: 0.88 (0.51, 1.54)
- HR PFS (95% CI) [37]: 1.07 (0.72, 1.61)
- Disease Control CR/PR/SD, patients n (%) [38]: 32 (32%)
- Median OS (95% CI) [38]: 5.8 (4.7, 9.0+) months
- Median PFS (95% CI) [38]: 2.0 (1.9, 2.3) months
- PD, patients n (%) [38]: 67 (68%)
- Disease Control CR/PR/SD, patients n (%) [39]: 16 (33%)
- Median OS (95% CI) [39]: 9.0 (4.6, 9.0+) months
- Median PFS (95% CI) [39]: 2.0 (1.9, 2.3) months
- OS [39]: 9.0 months
- PD, patients n (%) [39]: 33 (67%)
- HR OS (95% CI) [40]: 0.79 (0.41, 1.51)
- HR PFS (95% CI) [40]: 0.95 (0.59, 1.51)
- HR OS (95% CI) [41]: 0.75 (0.40, 1.43)
- HR PFS (95% CI) [41]: 0.96 (0.62, 1.50)
- Disease Control CR/PR/SD, patients n (%) [42]: 16 (32%)
- Median OS (95% CI) [42]: 5.5 (3.6, 8.7+) months
- Median PFS (95% CI) [42]: 2.1 (1.7, 2.5) months
- PD, patients n (%) [42]: 34 (68%)
- OS [43]: not reached
- PFS [43]: 2.0 months
- HR for OS [44]: 0.73
- HR for PFS [44]: 0.78
- OS (validation cohort, XRCC3 rs861539 C/C variant (so in the source)): 5.5 months
- HR for OS (validation cohort, XRCC3 rs861539 G/A vs C/C (so in the source)): 0.75
- Median OS [45]: 5.7 months
- Median PFS [45]: 2.0 months
